Experimental data as given in patent US8541588B2, “Sulfonamide derivatives” (Pfizer Limited, priority 2009, dated 2013).

Target: T1, Nav1.7 (or SCN9A) channel; HEK cells stably transfected with hSCN9A (Homo sapiens, UniProt Q15858)
T1 construct: expressed in transfected cells
Experiment: Nav1.7 block, PatchXpress 7000 automated whole-cell voltage clamp, estimated IC50 (EIC50)
Assay type: cell-based
Conditions: estimated IC50; hSCN9A HEK cells, PatchXpress platform; Examples 283-814

T1 sequence (Q15858 whole entry): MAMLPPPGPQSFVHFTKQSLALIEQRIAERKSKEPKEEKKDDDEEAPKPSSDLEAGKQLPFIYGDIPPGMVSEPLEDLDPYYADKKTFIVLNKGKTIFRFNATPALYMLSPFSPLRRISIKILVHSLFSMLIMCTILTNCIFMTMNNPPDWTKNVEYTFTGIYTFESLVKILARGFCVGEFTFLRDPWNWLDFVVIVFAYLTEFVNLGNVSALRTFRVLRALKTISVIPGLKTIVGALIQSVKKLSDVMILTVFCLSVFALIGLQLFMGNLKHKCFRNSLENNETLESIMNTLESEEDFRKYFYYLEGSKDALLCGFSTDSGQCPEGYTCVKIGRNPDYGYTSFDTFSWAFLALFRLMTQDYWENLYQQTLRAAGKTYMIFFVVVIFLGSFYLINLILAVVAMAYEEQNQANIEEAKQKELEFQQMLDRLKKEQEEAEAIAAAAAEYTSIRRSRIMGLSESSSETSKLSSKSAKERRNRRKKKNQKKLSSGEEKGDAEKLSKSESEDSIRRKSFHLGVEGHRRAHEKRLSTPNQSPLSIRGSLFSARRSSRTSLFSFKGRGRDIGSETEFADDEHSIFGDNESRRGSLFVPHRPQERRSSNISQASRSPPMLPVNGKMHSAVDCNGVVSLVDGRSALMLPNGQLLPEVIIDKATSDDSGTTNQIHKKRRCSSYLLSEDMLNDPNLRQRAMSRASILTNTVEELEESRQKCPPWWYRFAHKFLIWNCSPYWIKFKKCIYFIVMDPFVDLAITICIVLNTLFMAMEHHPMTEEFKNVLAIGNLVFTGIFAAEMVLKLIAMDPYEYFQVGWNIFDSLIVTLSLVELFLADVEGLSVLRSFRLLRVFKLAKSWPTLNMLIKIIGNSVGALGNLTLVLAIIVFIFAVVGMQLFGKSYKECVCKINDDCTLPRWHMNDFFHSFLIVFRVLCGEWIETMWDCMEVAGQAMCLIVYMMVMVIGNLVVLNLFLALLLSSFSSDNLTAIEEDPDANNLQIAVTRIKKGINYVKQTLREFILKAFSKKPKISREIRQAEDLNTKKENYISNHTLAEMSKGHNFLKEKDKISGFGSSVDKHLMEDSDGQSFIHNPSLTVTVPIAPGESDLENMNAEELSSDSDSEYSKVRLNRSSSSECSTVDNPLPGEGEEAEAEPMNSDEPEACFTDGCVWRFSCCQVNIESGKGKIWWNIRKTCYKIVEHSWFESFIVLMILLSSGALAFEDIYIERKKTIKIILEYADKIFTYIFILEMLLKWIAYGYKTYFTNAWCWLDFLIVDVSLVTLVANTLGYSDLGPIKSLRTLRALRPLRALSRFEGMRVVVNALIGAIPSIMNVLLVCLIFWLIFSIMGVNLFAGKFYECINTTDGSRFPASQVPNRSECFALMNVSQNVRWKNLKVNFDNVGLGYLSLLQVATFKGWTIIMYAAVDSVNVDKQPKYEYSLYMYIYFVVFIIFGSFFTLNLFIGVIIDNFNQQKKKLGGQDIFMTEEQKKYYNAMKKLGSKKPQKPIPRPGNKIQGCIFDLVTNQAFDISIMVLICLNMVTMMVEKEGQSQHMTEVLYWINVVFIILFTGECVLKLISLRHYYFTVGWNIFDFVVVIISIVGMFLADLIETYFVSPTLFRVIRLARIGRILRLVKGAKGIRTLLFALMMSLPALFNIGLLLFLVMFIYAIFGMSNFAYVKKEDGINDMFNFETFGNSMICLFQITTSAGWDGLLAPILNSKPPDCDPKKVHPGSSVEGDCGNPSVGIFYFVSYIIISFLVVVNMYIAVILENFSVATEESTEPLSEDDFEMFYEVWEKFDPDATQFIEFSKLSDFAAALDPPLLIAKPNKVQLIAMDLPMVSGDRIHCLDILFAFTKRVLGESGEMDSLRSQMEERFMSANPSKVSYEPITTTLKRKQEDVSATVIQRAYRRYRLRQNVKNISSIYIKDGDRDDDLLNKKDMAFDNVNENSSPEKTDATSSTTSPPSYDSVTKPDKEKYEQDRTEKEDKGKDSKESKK

SMILES	IC50 [nM]
Cn1nccc1-c1cc(Br)ccc1Oc1ccc(S(=O)(=O)Nc2ncns2)cc1C(N)=O [Example 735, 2-[4-bromo-2-(1-methyl-1H-pyrazol-5-yl)phenoxy]-5-[(1,2,4-thiadiazol-5-ylamino)sulfonyl]benzamide]	1000
N#Cc1cc(S(=O)(=O)Nc2ncns2)ccc1Oc1ccc(Cl)cc1-c1ccnc(N2CCNCC2)c1 [Example 736, 4-[4-chloro-2-(2-piperazin-1-ylpyridin-4-yl)phenoxy]-3-cyano-N-1,2,4-thiadiazol-5-ylbenzenesulfonamide]	2.7
Cn1nccc1-c1cc(Cl)ccc1Oc1ncc(S(=O)(=O)Nc2nccs2)cc1C#N [Example 739, 6-[4-chloro-2-(1-methyl-1H-pyrazol-5-yl)phenoxy]-5-cyano-N-1,3-azol-2-ylpyridine-3-sulfonamide]	150
CCn1nc(C(F)(F)F)cc1-c1ccc(Oc2ncc(S(=O)(=O)Nc3nccs3)cc2C#N)cc1 [Example 740, 5-cyano-6-{4-[1-ethyl-3-(trifluoromethyl)-1H-pyrazol-5-yl]phenoxy}-N-1,3-thiazol-2-ylpyridine-3-sulfonamide]	400
N#Cc1cc(S(=O)(=O)Nc2ncns2)ccc1Oc1ccc(Cl)cc1-c1ccnc(Cl)c1 [Example 743, 4-[4-chloro-2-(2-chloropyridin-4-yl)phenoxy]-3-cyano-N-1,2,4-thiadiazol-5-ylbenzenesulfonamide]	12
O=S(=O)(Nc1ccncn1)c1ccc(Oc2ccc(Cl)cc2C2CCNCC2)c(Cl)c1 [Example 744, 3-chloro-4-(4-chloro-2-piperidin-4-ylphenoxy)-N-pyrimidin-4-ylbenzenesulfonamide]	170
Cn1nccc1-c1cc(Cl)ccc1Oc1ccc(S(=O)(=O)Nc2ccc(F)cn2)cc1Cl [Example 745, 3-chloro-4-[4-chloro-2-(1-methyl-1H-pyrazol-5-yl)phenoxy]-N-(5-fluoropyridin-2-yl)benzenesulfonamide]	120
O=S(=O)(Nc1ccncn1)c1ccc(Oc2ccc(Cl)cc2-c2ccn[nH]2)c(Cl)c1 [Example 746, 3-chloro-4-[4-chloro-2-(1H-pyrazol-5-yl)phenoxy]-N-pyrimidin-4-ylbenzenesulfonamide]	95
N#Cc1cc(S(=O)(=O)Nc2ncns2)ccc1Oc1cc(Cl)c(F)cc1-c1ccn[nH]1 [Example 751, 4-[5-chloro-4-fluoro-2-(1H-pyrazol-5-yl)phenoxy]-3-cyano-N-1,2,4-thiadiazol-5-ylbenzenesulfonamide]	13
CCn1nc(C(F)(F)F)cc1-c1ccc(Oc2ncc(S(=O)(=O)Nc3nccs3)cc2Cl)cc1 [Example 758, 5-chloro-6-{4-[1-ethyl-3-(trifluoromethyl)-1H-pyrazol-5-yl]phenoxy}-N-1,3-thiazol-2-ylpyridine-3-sulfonamide]	210
Cn1nccc1-c1cc(Cl)ccc1Oc1ncc(S(=O)(=O)Nc2nccs2)cc1Cl [Example 759, 5-chloro-6-[4-chloro-2-(1-methyl-1H-pyrazol-5-yl)phenoxy]-N-1,3-thiazol-2-ylpyridine-3-sulfonamide]	250
N#Cc1cc(S(=O)(=O)Nc2cscn2)ccc1Oc1ccc(Cl)cc1-c1ccnn1C1CCNCC1 [Example 760, 4-[4-chloro-2-(1-piperidin-4-yl-1H-pyrazol-5-yl)phenoxy]-3-cyano-N-1,3-thiazol-4-ylbenzenesulfonamide]	88
N#Cc1cc(S(=O)(=O)Nc2cscn2)ccc1Oc1ccc(Cl)cc1-c1ccn(C2CCNCC2)n1 [Example 761, 4-[4-chloro-2-(1-piperidin-4-yl-1H-pyrazol-3-yl)phenoxy]-3-cyano-N-1,3-thiazol-4-ylbenzenesulfonamide]	5400
N#Cc1cc(S(=O)(=O)Nc2ncns2)ccc1Oc1cc(F)c(Cl)cc1-c1ccn[nH]1 [Example 763, 4-[4-chloro-5-fluoro-2-(1H-pyrazol-5-yl)phenoxy]-3-cyano-N-1,2,4-thiadiazol-5-ylbenzenesulfonamide]	34
CC(C)(C)n1ccc(Cc2cccc(Oc3ccc(S(=O)(=O)Nc4cscn4)cc3C#N)c2)n1 [Example 769, 4-{3-[(1-tert-butyl-1H-pyrazol-3-yl)methyl]phenoxy}-3-cyano-N-1,3-thiazol-4-ylbenzenesulfonamide]	8700
N#Cc1cc(S(=O)(=O)Nc2ccc(C(F)(F)F)cn2)ccc1Oc1ccccc1-c1ccccc1 [Example 770, 4-(biphenyl-2-yloxy)-3-cyano-N-[5-(trifluoromethyl)pyridin-2-yl]benzenesulfonamide]	24000

Now from value to compound:

IC50 [nM]	SMILES
17	O=S(=O)(Nc1ncns1)c1ccc(Oc2ccc(Cl)cc2-c2cn[nH]c2)c(F)c1 [Example 737, 4-[4-chloro-2-(1H-pyrazol-4-yl)phenoxy]-3-fluoro-N-1,2,4-thiadiazol-5-ylbenzenesulfonamide]
1.4	O=S(=O)(Nc1ncns1)c1cc(F)c(Oc2ccc(Cl)cc2-c2cn[nH]c2)cc1F [Example 738, 4-[4-chloro-2-(1H-pyrazol-4-yl)phenoxy]-2,5-difluoro-N-1,2,4-thiadiazol-5-ylbenzenesulfonamide]
7.8	N#Cc1cc(S(=O)(=O)Nc2ncns2)ccc1Oc1ccc(C(F)(F)F)cc1-c1ccn[nH]1 [Example 741, 3-cyano-4-[2-(1H-pyrazol-5-yl)-4-(trifluoromethyl)phenoxy]-N-1,2,4-thiadiazol-5-ylbenzenesulfonamide]
3.6	Nc1n[nH]cc1-c1cc(Cl)ccc1Oc1cc(F)c(S(=O)(=O)Nc2ncns2)cc1F [Example 742, 4-[2-(3-amino-1H-pyrazol-4-yl)-4-chlorophenoxy]-2,5-difluoro-N-1,2,4-thiadiazol-5-ylbenzenesulfonamide]
50	O=S(=O)(Nc1nncs1)c1ccc(Oc2ccc(Cl)cc2-c2ccn[nH]2)c(Cl)c1 [Example 747, 3-chloro-4-[4-chloro-2-(1H-pyrazol-5-yl)phenoxy]-N-1,3,4-adiazol-2-ylbenzenesulfonamide]
170	O=S(=O)(Nc1nncs1)c1cc(Cl)c(Oc2ccc(Cl)cc2-c2ccnn2CCO)cc1F [Example 748, 5-chloro-4-{4-chloro-2-[1-(2-hydroxyethyl)-1H-pyrazol-5-yl]phenoxy}-2-fluoro-N-1,3,4-thiadiazol-2-ylbenzenesulfonamide]
45	Cc1n[nH]cc1-c1cc(Cl)ccc1Oc1ccc(S(=O)(=O)Nc2nccs2)cc1F [Example 749, 4-[4-chloro-2-(3-methyl-1H-pyrazol-4-yl)phenoxy]-3-fluoro-N-1,3-thiazol-2-ylbenzenesulfonamide]
210	O=S(=O)(Nc1cscn1)c1cc(F)c(Oc2ccc(OC(F)(F)F)cc2-c2cn[nH]c2)cc1F [Example 750, 2,5-difluoro-4-[2-(1H-pyrazol-4-yl)-4-(trifluoromethoxy)phenoxy]-N-1,3-thiazol-4-ylbenzenesulfonamide]
2.1	O=S(=O)(Nc1ncns1)c1cc(F)c(Oc2cc(Cl)c(F)cc2-c2cn[nH]c2)cc1F [Example 752, 4-[5-chloro-4-fluoro-2-(1H-pyrazol-4-yl)phenoxy]-2,5-difluoro-N-1,2,4-thiadiazol-5-ylbenzenesulfonamide]
5.2	O=S(=O)(Nc1ncns1)c1cc(F)c(Oc2cc(Cl)c(F)cc2-c2ccn[nH]2)cc1F [Example 753, 4-[5-chloro-4-fluoro-2-(1H-pyrazol-5-yl)phenoxy]-2,5-difluoro-N-1,2,4-thiadiazol-5-ylbenzenesulfonamide]
5.3	N#Cc1cc(S(=O)(=O)Nc2ncns2)ccc1Oc1cc(Cl)c(F)cc1-c1cn[nH]c1 [Example 754, 4-[5-chloro-4-fluoro-2-(1H-pyrazol-4-yl)phenoxy]-3-cyano-N-1,2,4-thiadiazol-5-ylbenzenesulfonamide]
2.4	O=S(=O)(Nc1ncns1)c1cc(Cl)c(Oc2ccc(F)cc2-c2cn[nH]c2)cc1F [Example 755, 5-chloro-2-fluoro-4-[4-fluoro-2-(1H-pyrazol-4-yl)phenoxy]-N-1,2,4-thiadiazol-5-ylbenzenesulfonamide]
11	O=S(=O)(Nc1ncns1)c1cc(F)c(Oc2ccc(F)cc2-c2cn[nH]c2)cc1F [Example 756, 2,5-difluoro-4-[4-fluoro-2-(1H-pyrazol-4-yl)phenoxy]-N-1,2,4-thiadiazol-5-ylbenzenesulfonamide]
0.9	O=S(=O)(Nc1ncns1)c1cc(F)c(Oc2cc(F)c(Cl)cc2-c2cn[nH]c2)cc1F [Example 757, 4-[4-chloro-5-fluoro-2-(1H-pyrazol-4-yl)phenoxy]-2,5-difluoro-N-1,2,4-thiadiazol-5-ylbenzenesulfonamide]
4.2	O=S(=O)(Nc1ncns1)c1cc(F)c(Oc2cc(F)c(Cl)cc2-c2ccn[nH]2)cc1F [Example 762, 4-[4-chloro-5-fluoro-2-(1H-pyrazol-5-yl)phenoxy]-2,5-difluoro-N-1,2,4-thiadiazol-5-ylbenzenesulfonamide]
30	O=S(=O)(Nc1nncs1)c1cc(Cl)c(Oc2ccc(C(F)(F)F)cc2-c2cn[nH]c2)cc1F [Example 764, 5-chloro-2-fluoro-4-[2-(1H-pyrazol-4-yl)-4-(trifluoromethyl)phenoxy]-N-1,3,4-thiadiazol-2-ylbenzenesulfonamide]
110	O=S(=O)(Nc1nncs1)c1cc(Cl)c(Oc2ccc(Cl)cc2C2CCNCC2)cc1F [Example 765, 5-chloro-4-(4-chloro-2-piperidin-4-ylphenoxy)-2-fluoro-N-1,3,4-thiadiazol-2-ylbenzenesulfonamide]
500	N#Cc1cc(S(=O)(=O)Nc2cscn2)ccc1Oc1ccc(Cl)cc1-c1cccc(N)n1 [Example 766, 4-[2-(6-aminopyridin-2-yl)-4-chlorophenoxy]-3-cyano-N-1,3-thiazol-4-ylbenzenesulfonamide]
240	N#Cc1cc(S(=O)(=O)Nc2cscn2)ccc1Oc1ccc(Cl)cc1-c1cn[nH]c1 [Example 767, 4-[4-chloro-2-(1H-pyrazol-4-yl)phenoxy]-3-cyano-N-1,3-thiazol-4-ylbenzenesulfonamide]
11000	N#Cc1cc(S(=O)(=O)Nc2cscn2)ccc1Oc1cccc(Cc2cc[nH]n2)c1 [Example 768, 3-cyano-4-[3-(1H-pyrazol-3-ylmethyl)phenoxy]-N-1,3-thiazol-4-ylbenzenesulfonamide]
